In ChEMBL document CHEMBL1201862, “PubChem BioAssay data set” (2004):
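Cells were grown in 96-well plates and exposed to each compound for 48 hours at five concentrations; endpoints were interpolated linearly between bracketing concentrations, or set to the highest concentration if not reached. Abbreviation: GI50, concentration required for 50% inhibition of growth.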 Active and inactive are the calls of the source. Cut-off read from the data, not from the text of the source: active = GI50 up to about 1.1 µM and inactive = higher.

How the values were obtained:
Test in all cases: NCI tumour cell line growth inhibition, 48 h
786-0 = system: 786-0
A549 = system: A549
DU-145 = system: DU-145
HOP-62 = system: HOP-62
Hs-578T = system: Hs-578T
IGROV-1 = system: IGROV-1
LOX IMVI = system: LOX IMVI
MDA-MB-435 = system: MDA-MB-435
NCI-H460 = system: NCI-H460
NCI-H522 = system: NCI-H522
OVCAR-3 = system: OVCAR-3
RPMI-8226 = system: RPMI-8226
RXF 393 = system: RXF 393
SF-268 = system: SF-268
SF-539 = system: SF-539
SK-MEL-28 = system: SK-MEL-28
SK-OV-3 = system: SK-OV-3
SNB-19 = system: SNB-19
T47D = system: T47D
UO-31 = system: UO-31

Compound	GI50 (786-0)	GI50 (A549)	GI50 (DU-145)	GI50 (HOP-62)	GI50 (Hs-578T)	GI50 (IGROV-1)	GI50 (LOX IMVI)	GI50 (MDA-MB-435)	GI50 (NCI-H460)	GI50 (NCI-H522)	GI50 (OVCAR-3)	GI50 (RPMI-8226)	GI50 (RXF 393)	GI50 (SF-268)	GI50 (SF-539)	GI50 (SK-MEL-28)	GI50 (SK-OV-3)	GI50 (SNB-19)	GI50 (T47D)	GI50 (UO-31)
O=C(Nc1ccc2oc(=O)c(C(=O)O)cc2c1)Oc1ccccc1	> 100 µM (inactive)	> 100 µM (inactive)	> 100 µM (inactive)	> 100 µM (inactive)	> 100 µM (inactive)	> 100 µM (inactive)	> 100 µM (inactive)	> 100 µM (inactive)	> 100 µM (inactive)	> 100 µM (inactive)	> 100 µM (inactive)	> 100 µM (inactive)	> 100 µM (inactive)	> 100 µM (inactive)	> 100 µM (inactive)	> 100 µM (inactive)	> 100 µM (inactive)	> 100 µM (inactive)	> 100 µM (inactive)	> 100 µM (inactive)
O=C1CCC(c2ccccc2)=NN1c1nc2ccccc2s1	38.3 µM (inactive)	35.9 µM (inactive)	22.9 µM (inactive)	36.9 µM (inactive)	36 µM (inactive)	34.9 µM (inactive)	38.6 µM (inactive)	23.3 µM (inactive)	27.7 µM (inactive)	24.5 µM (inactive)	17.9 µM (inactive)	27 µM (inactive)	15.4 µM (inactive)	27.2 µM (inactive)	24.5 µM (inactive)	40.2 µM (inactive)	25.2 µM (inactive)	35.6 µM (inactive)	11.9 µM (inactive)	31.5 µM (inactive)
CCCCCCCC(=O)O[C@H]1[C@H]2[C@@H](CC1(C)C)C(=O)[C@]13O[C@H]1C(=O)[C@]1(CO1)[C@]23C	5.07 µM (inactive)	30.6 µM (inactive)	14.8 µM (inactive)	17.5 µM (inactive)	46 µM (inactive)	4.4 µM (inactive)	1.34 µM (inactive)	24.2 µM (inactive)	5.71 µM (inactive)	1.3 µM (inactive)	2.91 µM (inactive)	0.556 µM (active)	2.22 µM (inactive)	6.01 µM (inactive)	6.84 µM (inactive)	3.38 µM (inactive)	34.3 µM (inactive)	17.7 µM (inactive)	1.05 µM (active)	14.3 µM (inactive)
O=NC1C(Cl)C2CC1C1C(Br)C(Br)CC21 (stereo not given)	> 100 µM (inactive)	> 100 µM (inactive)	> 100 µM (inactive)	> 100 µM (inactive)	> 100 µM (inactive)	> 100 µM (inactive)	> 100 µM (inactive)	> 100 µM (inactive)	> 100 µM (inactive)	> 100 µM (inactive)	> 100 µM (inactive)	20.8 µM (inactive)	> 100 µM (inactive)	> 100 µM (inactive)	> 100 µM (inactive)	> 100 µM (inactive)	> 100 µM (inactive)	> 100 µM (inactive)	> 100 µM (inactive)	> 100 µM (inactive)
CCOc1ccc(C2c3[nH]c4ccccc4c3CCN2C(=O)c2cccs2)cc1 (stereo not given)	9.18 µM (inactive)	7.03 µM (inactive)	68.9 µM (inactive)	4.67 µM (inactive)	63.1 µM (inactive)	10.2 µM (inactive)	6.52 µM (inactive)	6.61 µM (inactive)	2.2 µM (inactive)	9.79 µM (inactive)	9.89 µM (inactive)	5.41 µM (inactive)	7.18 µM (inactive)	52.4 µM (inactive)	3.51 µM (inactive)	> 100 µM (inactive)	> 100 µM (inactive)	23.8 µM (inactive)	5.9 µM (inactive)	14.2 µM (inactive)
CC(=O)O[C@H]1C#C/C=C\C#CC[C@@H]2C(=O)N(C(=O)OC(C)(C)C)[C@@H]12	9.93 µM (inactive)	16.6 µM (inactive)	19.9 µM (inactive)	7.11 µM (inactive)	39.6 µM (inactive)	3.45 µM (inactive)	13.1 µM (inactive)	71.6 µM (inactive)	0.25 µM (active)	12.8 µM (inactive)	41.1 µM (inactive)	16.2 µM (inactive)	15.4 µM (inactive)	16.8 µM (inactive)	1.67 µM (inactive)	71.4 µM (inactive)	62.4 µM (inactive)	18.7 µM (inactive)	32.7 µM (inactive)	2.91 µM (inactive)
Cc1ccc([N+](=O)[O-])cc1NC1=NCCO1	> 100 µM (inactive)	> 100 µM (inactive)	> 100 µM (inactive)	> 100 µM (inactive)	> 100 µM (inactive)	> 100 µM (inactive)	> 100 µM (inactive)	> 100 µM (inactive)	> 100 µM (inactive)	> 100 µM (inactive)	> 100 µM (inactive)	> 100 µM (inactive)	> 100 µM (inactive)	> 100 µM (inactive)	> 100 µM (inactive)	> 100 µM (inactive)	> 100 µM (inactive)	> 100 µM (inactive)	> 100 µM (inactive)	> 100 µM (inactive)
Cn1c2ccc(F)cc2c2ccc3c(c21)C(=O)C=CC3=O	3.41 µM (inactive)	> 64.1 µM (inactive)	22 µM (inactive)	> 66.5 µM (inactive)	29.9 µM (inactive)	14.6 µM (inactive)	6.17 µM (inactive)	16.4 µM (inactive)	> 57.3 µM (inactive)	2.15 µM (inactive)	7.21 µM (inactive)	6.93 µM (inactive)	3.28 µM (inactive)	21 µM (inactive)	16.6 µM (inactive)	13.8 µM (inactive)	61 µM (inactive)	50.8 µM (inactive)	2.77 µM (inactive)	7.52 µM (inactive)
COc1ccc2/c(=C/c3ccc(N(C)C)cc3)c3cc(-c4ccccc4)[n+](C)n3c2c1	0.161 µM (active)	0.261 µM (active)	0.179 µM (active)	0.345 µM (active)	0.142 µM (active)	0.112 µM (active)	0.161 µM (active)	0.0875 µM (active)	0.245 µM (active)	0.153 µM (active)	0.0834 µM (active)	0.0263 µM (active)	0.59 µM (active)	0.292 µM (active)	0.495 µM (active)	0.164 µM (active)	0.282 µM (active)	0.134 µM (active)	0.0805 µM (active)	0.735 µM (active)
Cc1ccc2nc(-c3ccccc3)c(N=O)n2c1	40.9 µM (inactive)	32.7 µM (inactive)	46.6 µM (inactive)	56 µM (inactive)	79.4 µM (inactive)	35.5 µM (inactive)	46.5 µM (inactive)	40 µM (inactive)	50.1 µM (inactive)	36.1 µM (inactive)	32.4 µM (inactive)	36.1 µM (inactive)	> 100 µM (inactive)	69.2 µM (inactive)	29.2 µM (inactive)	45.9 µM (inactive)	> 100 µM (inactive)	96.4 µM (inactive)	71 µM (inactive)	66.8 µM (inactive)
O=C(NCc1cccs1)OC1CC2CCC1C2 (stereo not given)	> 100 µM (inactive)	> 100 µM (inactive)	> 100 µM (inactive)	> 100 µM (inactive)	81.5 µM (inactive)	> 100 µM (inactive)	> 100 µM (inactive)	> 100 µM (inactive)	> 100 µM (inactive)	> 100 µM (inactive)	> 100 µM (inactive)	> 100 µM (inactive)	> 100 µM (inactive)	> 100 µM (inactive)	> 100 µM (inactive)	> 100 µM (inactive)	> 100 µM (inactive)	> 100 µM (inactive)	> 100 µM (inactive)	> 100 µM (inactive)
C[C@H](CCC(=O)NCC(=O)O)[C@H]1CC[C@H]2[C@@H]3[C@H](O)C[C@@H]4C[C@H](O)CC[C@]4(C)[C@H]3CC[C@]12C	> 100 µM (inactive)	> 100 µM (inactive)	> 100 µM (inactive)	> 100 µM (inactive)	> 100 µM (inactive)	> 100 µM (inactive)	> 100 µM (inactive)	> 100 µM (inactive)	> 100 µM (inactive)	> 100 µM (inactive)	> 100 µM (inactive)	> 100 µM (inactive)	> 100 µM (inactive)	> 100 µM (inactive)	> 100 µM (inactive)	> 100 µM (inactive)	> 100 µM (inactive)	> 100 µM (inactive)	> 100 µM (inactive)	> 100 µM (inactive)
C[C@H]1[C@@H](c2ccccc2)O[B-](c2ccccc2)(c2ccccc2)[N+]1(C)C	78.2 µM (inactive)	74.1 µM (inactive)	57 µM (inactive)	> 100 µM (inactive)	51.9 µM (inactive)	> 100 µM (inactive)	> 100 µM (inactive)	61.8 µM (inactive)	> 100 µM (inactive)	35.7 µM (inactive)	40.6 µM (inactive)	31.3 µM (inactive)	45.5 µM (inactive)	> 100 µM (inactive)	33.3 µM (inactive)	48 µM (inactive)	> 100 µM (inactive)	> 100 µM (inactive)	34.7 µM (inactive)	19.3 µM (inactive)
CC(=O)OC1CC2CC(=O)CC1N2C (stereo not given)	> 100 µM (inactive)	> 100 µM (inactive)	> 100 µM (inactive)	> 100 µM (inactive)	> 100 µM (inactive)	> 100 µM (inactive)	> 100 µM (inactive)	> 100 µM (inactive)	> 100 µM (inactive)	> 100 µM (inactive)	> 100 µM (inactive)	68.7 µM (inactive)	> 100 µM (inactive)	> 100 µM (inactive)	> 100 µM (inactive)	> 100 µM (inactive)	> 100 µM (inactive)	> 100 µM (inactive)	> 100 µM (inactive)	> 100 µM (inactive)
